Assay results taken from PubChem BioAssay (NCI).
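Five concentrations, 48 hours, 96-well plates. TGI denotes the concentration required for complete inhibition of growth.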

Key:
Experiment in all cases: growth of human tumour cells (NCI), 48 h
MALME-3M melanoma = system: MALME-3M melanoma
NCI-H460 lung = system: NCI-H460 lung
TK-10 renal = system: TK-10 renal
EKVX NSCLC = system: EKVX NSCLC
HCT-15 colon = system: HCT-15 colon
COLO 205 colon = system: COLO 205 colon
SR leukemia = system: SR leukemia
HCT-116 colon = system: HCT-116 colon
CCRF-CEM leukemia = system: CCRF-CEM leukemia
NCI-H226 lung = system: NCI-H226 lung
M14 melanoma = system: M14 melanoma
SW-620 colon = system: SW-620 colon
SN12C renal = system: SN12C renal
SK-MEL-5 melanoma = system: SK-MEL-5 melanoma
ACHN renal = system: ACHN renal
OVCAR-8 ovarian = system: OVCAR-8 ovarian
KM12 colon = system: KM12 colon
MDA-MB-231 breast = system: MDA-MB-231 breast
UACC-62 melanoma = system: UACC-62 melanoma

Row | SMILES | TGI (MALME-3M melanoma) [µM] | TGI (NCI-H460 lung) [µM] | TGI (TK-10 renal) [µM] | TGI (EKVX NSCLC) [µM] | TGI (HCT-15 colon) [µM] | TGI (COLO 205 colon) [µM] | TGI (SR leukemia) [µM] | TGI (HCT-116 colon) [µM] | TGI (CCRF-CEM leukemia) [µM] | TGI (NCI-H226 lung) [µM] | TGI (M14 melanoma) [µM] | TGI (SW-620 colon) [µM] | TGI (SN12C renal) [µM] | TGI (SK-MEL-5 melanoma) [µM] | TGI (ACHN renal) [µM] | TGI (OVCAR-8 ovarian) [µM] | TGI (KM12 colon) [µM] | TGI (MDA-MB-231 breast) [µM] | TGI (UACC-62 melanoma) [µM]
1 | O=C(N1CCN(c2ccccc2)CC1)N(C(=O)C1(c2ccc(Cl)cc2)CCCC1)S(=O)(=O)c1ccccc1 | 72.3 | > 100 | > 100 | 58.2 | 80.1 | 60.3 | > 100 | 52.7 | > 100 | 99.3 | 47.3 | > 100 | 94.6 | 40.7 | 45.6 | 89.4 | > 100 | 74.5 | 51.7
2 | Cc1ccc(NCc2nnc3c(-c4ccccc4)nc4ccccc4n23)cc1 | > 100 | > 100 | > 100 | 84.1 | > 100 | 86.6 | > 100 | > 100 | > 100 | > 100 | > 100 | > 100 | > 100 | 30.4 | > 100 | > 100 | > 100 | > 100 | > 100
3 | O=c1c2cc([N+](=O)[O-])cnc2sn1-c1ccc(Br)cc1 | 57 | > 100 | > 100 | > 100 | > 100 | > 100 | 60.7 | 59.3 | 66.6 | > 100 | > 100 | > 100 | > 100 | > 100 | > 100 | > 100 | > 100 | 73.4 | > 100
4 | CCOC(=O)/C=C1\C[C@H](NC(=O)OCc2ccccc2)C(=O)N1CC(=O)OCC | > 100 | > 100 | > 100 | > 100 | > 100 | > 100 | > 100 | > 100 | > 100 | > 100 | > 100 | > 100 | > 100 | > 100 | > 100 | > 100 | > 100 | > 100 | > 100
5 | COc1ccccc1NC1=NCC(C)S1 (stereo not given) | > 100 | > 100 | > 100 | > 100 | > 100 | > 100 | > 100 | > 100 | > 100 | > 100 | > 100 | > 100 | > 100 | > 100 | > 100 | > 100 | > 100 | > 100 | > 100
6 | COc1cccc(-c2cc(=O)c3cc(N4CCCC4)ccc3[nH]2)c1 | 9.53 | 1.42 | > 10 | > 10 | 0.00647 | < 0.001 | < 0.001 | 0.0348 | > 10 | 0.00347 | > 10 | > 10 | > 10 | 0.00747 | > 10 | 0.00128 | 0.0111 | 0.598 | > 10
7 | COc1cc(C2SC(N)=Nc3c2c(C)nn3C(=O)c2ccc(Cl)cc2)ccc1O (stereo not given) | > 10 | > 10 | > 10 | > 10 | > 10 | > 10 | > 10 | > 10 | > 10 | > 10 | > 10 | > 10 | > 10 | > 10 | > 10 | > 10 | > 10 | > 10 | > 10
8 | COc1cc2c3c4c1OCc1c5c(cc(c1-4)CC3[N+](C)(C)CC2)OCO5 (stereo not given) | > 100 | > 100 | > 100 | > 100 | > 100 | > 100 | > 100 | > 100 | > 100 | > 100 | > 100 | > 100 | 39.4 | > 100 | > 100 | > 100 | > 100 | > 100 | > 100
9 | CCOC(=O)c1c(CN2CCOCC2)n(Cc2ccccc2)c2c1cc(O)c1nc(C)c(C)nc12 | > 100 | > 100 | 97.7 | > 100 | > 100 | > 100 | > 100 | > 100 | > 100 | > 100 | > 100 | > 100 | > 100 | 57.4 | > 100 | 53.4 | > 100 | > 100 | > 100
10 | NC(=O)N=Nc1c2ccccc2n2[nH]ccc12 | > 100 | > 100 | > 100 | > 100 | > 100 | > 100 | > 100 | > 100 | > 100 | > 100 | > 100 | > 100 | > 100 | > 100 | > 100 | > 100 | > 100 | > 100 | > 100
